Results as given in patent US9469645B2, “Compounds and compositions for the treatment of parasitic diseases” (Novartis AG, priority 2009, dated 2016).
Where two headings read alike, the source gives them in different places.

Legend:
[1] = test system: 3D7 P. falciparum strain; test: parasite proliferation assay in infected red blood cells (SYBR Green I); assay type: cell-based, Plasmodium falciparum; conditions: 3D7 strain, read-out: EC50 3D7 strain
How it was run: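 P. falciparum 3D7 grown in O+ human erythrocytes to 3–8% parasitemia and exposed to compounds. Proliferation read as the increase in parasite DNA. Detection used SYBR Green I in saponin/triton-X/EDTA lysis buffer, with overnight lysis at room temperature.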

[2] = test system: W2 strain; test: parasite proliferation assay in infected red blood cells (SYBR Green I), W2 strain; assay type: cell-based
Description: Compounds of the invention can be assayed to measure their capacity to inhibit proliferation of parasitemia in infected red blood cells. The proliferation is quantified by the addition of SYBR Green I (INVITROGEN)® dye which has a high affinity for double stranded DNA.

[3] = Plasmodium falciparum, 3D7, Erythrocyte
[4] = Plasmodium falciparum, Erythrocyte

Row | Compound | EC50 [1, 3] [nM] | EC50 [2, 4] [nM] | EC50 ([2]; Erythrocyte) [nM] | EC50 [1] [nM] | EC50 [2] [nM]
1 | Cc1cc(C)cc(Nc2c(-c3ccc(F)cc3)nc3n2CCN(C(=O)CN)C3(C)C)c1 [Compound 656] | 6 | 7 | – | – | –
2 | CCCN(CCC)CC(=O)N1CCn2c(nc(-c3ccc(F)cc3)c2Nc2ccc(C)cc2)C1 [Compound 147] | 2430 | – | 1520 | – | –
3 | CC(C)(C)C1CCC(Nc2c(-c3ccc(F)cc3)nc3n2CCN(C(=O)CN)C3(C)C)CC1 (centres unmarked) [Compound 663] | 1060 | 1660 | – | – | –
4 | NCC(=O)N1CCn2c(nc(-c3ccc(F)cc3O)c2Nc2ccc(F)cc2)C1 [Compound 51] | 70 | – | 62 | – | –
5 | Cc1ccc(Nc2c(-c3ccc(F)cc3)nc3n2CCN(C(=O)[C@H](CCCCNC(=O)OC(C)(C)C)NC(=O)OCc2ccccc2)C3)cc1 [Compound 152] | 3870 | – | 873 | – | –
6 | CC(C)(C)CC(C)(C)Nc1c(C2CCCCC2)nc2ccccn12 [Compound 738] | 3240 | 1560 | – | – | –
7 | Cc1cc(Nc2c(-c3cccc(F)c3)nc3n2CC(=O)N(CC2CNC2)C3(C)C)ccc1F [Compound 686] | 628 | 524 | – | – | –
8 | Cc1ccc(Nc2c(-c3ccc(F)cc3)nc3n2CCN(C(=O)C2CCCNC2)C3)cc1 (centres unmarked) [Compound 87] | – | – | – | 20 | 12
9 | Cc1c(Cc2ccccc2)nc2n1[C@H](CCc1ccccc1)CN(C(=O)c1cccnc1)[C@H]2Cc1ccccc1 [Compound 283] | 5520 | – | 3490 | – | –
10 | CN1CCn2c(nc(-c3ccc(F)cc3)c2Nc2ccc(F)c(Cl)c2)C1(C)C [Compound 627] | 170 | 194 | – | – | –
11 | Cc1ccc(Cc2c(-c3ccc(F)cc3)nc3n2CCN(C(=O)CN)C3(C)C)cc1 [Compound 694] | 11 | 7 | – | – | –
12 | CNCC(=O)N1CCn2c(nc(-c3ccc(F)cc3)c2Nc2ccc(Cl)cc2)C1 [Compound 77] | 60 | – | 39 | – | –
13 | Cc1ccc(Nc2c(-c3ccc(F)cc3)nc3n2CCN(C(=O)C(O)c2ccc(Br)cc2F)C3)cc1 (centres unmarked) [Compound 132] | 100 | – | 82 | – | –
14 | NCCC(=O)N1CCn2c(nc(-c3ccc(F)cc3)c2Nc2ccc(F)cc2)C1 [Compound 34] | 70 | – | 75 | – | –
15 | Cc1cc(Nc2c(-c3cccc(F)c3)nc3n2CC(=O)N(CCCN)C3(C)C)ccc1F [Compound 689] | 512 | 295 | – | – | –
16 | CC1(C)c2nc(-c3ccc(F)cc3)c(Cc3ccc(F)cc3)n2CCN1C(=O)CN [Compound 693] | 8 | 8 | – | – | –
17 | CC1(C)c2nc(-c3ccc(F)cc3)c(Nc3cccc(Cl)c3)n2CCN1C(=O)CN [Compound 651] | 8 | 5 | – | – | –
18 | Cc1ccc(Nc2c(-c3ccc(F)cc3)nc3n2CCN(C(=O)[C@H](O)C2CCCCC2)C3)cc1 [Compound 121] | 20 | – | 33 | – | –
19 | Cc1ccc(Nc2c(-c3ccc(F)cc3F)nc3n2CCNC3)cc1 [Compound 280] | 4710 | – | 4650 | – | –
20 | Cc1ccc(Nc2c(-c3ccc(F)cc3)nc3n2CCCC3)cc1 [Compound 750] | 4770 | 4960 | – | – | –
21 | Cc1ccc(Nc2c(-c3ccc(F)cc3)nc3n2CCN(C(=O)CN2CCCC(F)(F)C2)C3)cc1 [Compound 74] | 70 | – | 67 | – | –

Row | Compound | EC50 [1, 3] [nM] | EC50 [2, 4] [nM] | EC50 ([2]; Erythrocyte) [nM] | EC50 [1] [nM] | EC50 [2] [nM]
22 | Cc1ccc(Nc2c(-c3ccc(F)cc3)nc3n2CCNC3)cc1 [Example 113, 2-(4-fluorophenyl)-N-p-tolyl-5,6,7,8-tetrahydroimidazo[1,2-a]pyrazin-3-amine] | 150 | – | 146 | – | –
23 | Cc1ccc(Nc2c(-c3ccc(F)cc3)nc3n2CCN(C(=O)[C@@H](C)N)C3)cc1 [Compound 84] | 50 | – | 74 | – | –
24 | COCCNCC(=O)N1CCn2c(nc(-c3ccc(F)cc3)c2Nc2ccc(C)cc2)C1 [Compound 309] | 80 | – | 68 | – | –
25 | NCC(=O)N1CCn2c(nc(-c3ccc(F)cc3)c2Nc2ccc(F)c(F)c2)C1 [Compound 30] | 30 | – | 23 | – | –
26 | Cc1ccc(Nc2c(-c3ccc(F)cc3)nc3n2CCN(C(=O)C(C)(C)N)C3)cc1Cl [Compound 632] | 15 | 16 | – | – | –
27 | NCC(=O)N1CCn2c(nc(-c3ccc(F)cc3)c2NC2CCCC2)C1 [Compound 6] | 4380 | – | 4640 | – | –
28 | COc1ccc(C(O)C(=O)N2CCn3c(nc(-c4ccc(F)cc4)c3Nc3ccc(C)cc3)C2)cc1 (centres unmarked) [Compound 122] | 180 | – | 154 | – | –
29 | Cc1cc(Nc2c(-c3ccc(F)cc3)nc3n2C(C)(C)C(=O)N(C)C3)ccc1Cl [Compound 616] | 5720 | 4560 | – | – | –
30 | CCC(C)(O)CC(=O)N1CCn2c(nc(-c3ccc(F)cc3)c2Nc2ccc(C)cc2)C1 (centres unmarked) [Compound 143] | 150 | – | 219 | – | –
31 | CN(C)CCN1C(=O)Cn2c(nc(-c3ccc(F)cc3)c2Nc2ccc(Cl)c(F)c2)C1(C)C [Compound 685] | 173 | 131 | – | – | –
32 | CCN1CCC(CC(=O)N2CCn3c(nc(-c4ccc(F)cc4)c3Nc3ccc(C)cc3)C2)CC1 [Compound 214] | 2850 | – | 2010 | – | –
33 | Cc1ccc(Nc2c(-c3ccc(F)cc3)nc3n2CCN(C(=O)CN2CCC(CCN)CC2)C3)cc1 [Compound 178] | 3050 | – | 3320 | – | –
34 | Fc1ccc(Nc2c(-c3ccc(F)cc3)nc3n2CCNC3)cc1 [Example 28, N,2-bis(4-fluorophenyl)-5,6,7,8-tetrahydroimidazo[1,2-a]pyrazin-3-amine] | 200 | – | 175 | – | –
35 | Cc1ccc(Nc2c(-c3ccc(F)cc3)nc3n2CCN(C(=O)C(O)C(C)C)C3)cc1 (centres unmarked) [Compound 104] | 10 | – | 7 | – | –
36 | CC(=O)NCC(=O)N1CCn2c(nc(-c3ccc(F)cc3)c2Nc2ccc(F)cc2)C1 [Compound 25] | > 10600 | – | 4350 | – | –
37 | Cc1ccc(Nc2c(-c3ccncc3)nc3n2CCNC3)cc1 [Compound 354] | 6320 | – | 564 | – | –
38 | CC(C)(N)C(=O)N1CCn2c(nc(-c3ccc(F)cc3)c2Nc2ccc(C#N)c(C(F)(F)F)c2)C1 [Compound 635] | 940 | 1760 | – | – | –
39 | CC(C)(N)C(=O)N1CCn2c(nc(-c3ccccc3F)c2Nc2ccc(F)cc2)C1 [Compound 10] | 1390 | – | 1280 | – | –
40 | CC(C)(N)C(=O)N1CCn2c(nc(-c3ccc(F)cc3)c2Nc2ccc(C(F)(F)F)c(Cl)c2)C1 [Compound 633] | 528 | 331 | – | – | –
41 | CC1(C)c2nc(-c3ccc(F)cc3)c(Nc3ccc(F)cc3)n2CCN1C(=O)CNC(=O)CCNC(=O)CCc1ccc2oc3ccccc3c2c1 [Compound 729] | > 10000 | 6290 | – | – | –
42 | CC(C)[C@@H](O)C(=O)N1CCn2c(nc(-c3ccc(F)cc3)c2Nc2ccc(Cl)c(F)c2)C1 [Compound 360] | 30 | – | 15 | – | –

Row | Compound | EC50 [1, 3] [nM] | EC50 [2, 4] [nM] | EC50 ([2]; Erythrocyte) [nM] | EC50 [1] [nM] | EC50 [2] [nM]
43 | CCC(=O)Nc1ccc(C[C@H](NC(=O)OC(C)(C)C)C(=O)N2CCn3c(nc(-c4ccc(F)cc4)c3Nc3ccc(C)cc3)C2)cc1 [Compound 185] | 350 | – | 136 | – | –
44 | Cc1cc(Nc2c(-c3ccc(F)cc3)nc3n2C(C)(C)C(=O)N(C)C3)ccc1F [Compound 617] | 6330 | 6880 | – | – | –
45 | CCn1nccc1Nc1c(-c2ccc(F)cc2)nc2n1CCN(C(=O)CN)C2(C)C [Compound 601] | 3960 | 4120 | – | – | –
46 | CC(C)(N)C(=O)N1CCn2c(nc(-c3ccc(F)cc3)c2Nc2cccnc2)C1 [Compound 16] | 14100 | – | 3320 | – | –
47 | CC(C)(N)C(=O)N1CCn2c(nc(-c3ccccc3)c2Nc2ccc(F)cc2)C1 [Compound 11] | 200 | – | 168 | – | –
48 | CN1Cc2nc(-c3ccc(F)cc3)c(Nc3ccc(F)c(F)c3)n2C(C)(C)C1 [Compound 611] | 7670 | 5760 | – | – | –
49 | Cc1ccc(Nc2c(-c3ccc(F)cc3)nc3n2CCN(C(=O)[C@H](N)CCCCNC(=O)C(F)(F)F)C3)cc1 [Compound 102] | 650 | – | 426 | – | –
50 | Cc1ccc(Nc2c(-c3ccc(F)cc3)nc3n2C(C)(C)CN(C)C3)cc1C#N [Compound 612] | 6900 | 6080 | – | – | –
51 | Cc1ccc(Nc2c(-c3ccc(F)c(F)c3)nc3n2CCN(C(=O)CN)C3)cc1 [Compound 385] | 20 | – | 20 | – | –
52 | COC(C(=O)N1CCn2c(nc(-c3ccc(F)cc3)c2Nc2ccc(C)cc2)C1)(c1ccccc1)C(F)(F)F (centres unmarked) [Compound 128] | 1180 | – | 743 | – | –
53 | CCC[C@H](NC)C(=O)N1CCn2c(nc(-c3ccc(F)cc3)c2Nc2ccc(C)cc2)C1 [Compound 392] | 30 | – | 39 | – | –
54 | CCCNC(=O)C[C@H](N)C(=O)N1CCn2c(nc(-c3ccc(F)cc3)c2Nc2ccc(C)cc2)C1 [Compound 189] | 370 | – | 392 | – | –
55 | COCCCN1C(=O)Cn2c(nc(-c3cccc(F)c3)c2Nc2ccc(F)c(C)c2)C1(C)C [Compound 691] | 68 | 60 | – | – | –
56 | CCO[C@@H](Cc1ccc(O)cc1)C(=O)N1CCn2c(nc(-c3ccc(F)cc3)c2Nc2ccc(C)cc2)C1 [Compound 210] | 40 | – | 26 | – | –
57 | CCC(=O)NCc1ccc(C[C@H](N)C(=O)N2CCn3c(nc(-c4ccc(F)cc4)c3Nc3ccc(C)cc3)C2)cc1 [Compound 219] | 4970 | – | 3410 | – | –
58 | C[C@@H](N)C(=O)N1CCn2c(nc(-c3ccc(F)cc3)c2Nc2ccc(Cl)c(F)c2)C1 [Compound 327] | 30 | – | 21 | – | –
59 | Fc1ccc(-c2nc3n(c2Nc2ccc(Cl)c(F)c2)CCCC3)cc1 [Compound 749] | 1050 | 814 | – | – | –
60 | CC1(C)c2nc(-c3ccc(F)cc3)c(NC3CCC(F)(F)CC3)n2CCN1C(=O)CN [Compound 660] | 3 | 6 | – | – | –
61 | CCCCCN[C@H](C(=O)N1CCn2c(nc(-c3ccc(F)cc3)c2Nc2ccc(C)cc2)C1)c1ccccc1 [Compound 296] | 280 | – | 424 | – | –
